Source: US20250352506A1, “MRGPRB2/X2, AGONIST AND ANTAGONIST AND METHODS THEREOF” (THE UNIVERSITY OF HONG KONG, priority 2024, published 2025)
“Also recorded” adds a separate entry of the source.

Columns and labels:
[1] = test system: M-CSF, BLC, G-CSF and sTNF RI in blood plasma; test: ELISA of cytokines in blood plasma; assay type: in vivo, mouse; conditions: mice exposed to 2.5% DSS
Procedure: Concentrations of cytokines in blood plasma of the treatment groups (WT+Water, WT+2% DSS, Mrgprb2−/−+Water, Mrgprb2−/−+2% DSS, Water+Saline, 2.5% DSS+Saline, 2.5% DSS+P17, 2.5% DSS+P17*A4, 2.5% DSS+P17*A7, 2.5% DSS+CST-14 and 2.5% DSS+GE1111) were determined using ELISA kits (M-CSF-ab199084, Abcam; LIX—ab264611, Abcam; sTNF RI—ab202408, Abcam; G-CSF—ab197743, Abcam; BLC-EMCXCL13, Thermofisher) according to the manufacturer's protocol. Optical densities of the samples and standards were measured using PerkinElmer Victor X4. Cytokine concentrations were determined by comparing the optical density from the standard curve of each cytokine standards.

[2] = test system: cytokine and chemokine releases in the blood; test: Cytokine array analysis of blood plasma; assay type: in vivo, mouse; conditions: mice exposed to 2.5% DSS, 40-target array
Procedure: The cytokine membranes were blocked with blocking buffer in room temperature for 1 hr. The blocking buffer was removed from the membranes and […] of plasma obtained from the treatment groups (WT+Water, WT+2% DSS, Mrgprb2−/−+Water and Mrgprb2−/−+2% DSS; Water+Saline, 2.5% DSS+Saline, 2.5% DSS+P17*A7 and 2.5% DSS+GE1111) diluted in blocking buffer (total volume 1 mL) were subjected to membrane containing array of antibodies anti-cytokines. The membranes were first incubated at 4 °C for 24 hr in the blocking buffer, following five washes with washing buffers (I and II) and then incubated with 1× biotin-conjugated anti-cytokines overnight at 4 °C. Membranes were washed again with washing buffers (I and II) 5 five times and incubated with 1×HRP-conjugated streptavidin for 2 hr at room temperature. Membranes were washed again, and 1 mL of detection buffer C and D were mixed and added to each membrane in dark for 2 min before imaging. Finally, array images were measured with ChemiDoc MP (Bio-Rad Laboratories, Hercules, CA). The detailed protocol can be referred to the instructions of a Cytokine Antibody Array Kit (ab133999—40 targets, Abcam).

[3] = test system: 2.5% DSS-induced colitis in C57BL/6N mice; test: Treatment study in 2.5% DSS-induced colitis, clinical parameters (DAI, colon, H&E); assay type: in vivo, mouse; conditions: WT mice, 2.5% DSS Day 0 to 5, ligands every alternative day to Day 12; P17 and analogues 150 μg/kg, CST-14 15 μg/kg, GE1111 300 μg/kg
Description: (§1) C57BL/6N and Mrgprb2−/− adult mice (6-8 weeks old) were obtained from CMMR and housed in cages for acclimatation for a week. C57BL/6N and Mrgprb2−/− mice were divided into four groups (N=5-6) (2% DSS in drinking water and water control). Controls were fed with regular water and the treatment groups were exposed to 2% DSS for 5 days (Day 0 to Day 5) and regular water till Day 12. DSS-Colitis Grade (36,000-50,000 MW) (MP Biomedicals, Santa Ana, CA) was used in this study. During experiments, these mice were given anaesthesia to harvest blood and organs for other biochemical and histology analysis. For the survival study with Mrgprb2/x2 agonists, C57BL/6N mice were grouped into […] (N=10) and fed with 4% DSS for 5 days (Day 0 to 5) and replaced with regular drinking water for the rest of the experiment. Meanwhile, Mrgprb2/x2 ligands were given to the animals every alternative day via i.p. injection 100 μL with 10 μg/kg mice. […]
All animals were examined daily and the disease activity index (DAI) score was assessed as previously described by assessing stool consistency, presence of blood in stool and body weight change as summarised in Table 1. Percentage of body weight was calculated relative to the initial body weight at Day 0 [(Weight on a Day−Initial weight at Day 0/Initial weight at Day 0)×100].

[4] = test system: 4% DSS-induced colitis in C57BL/6N mice; test: Survival study in 4% DSS-induced colitis; assay type: in vivo, mouse; conditions: WT mice, i.p. every alternative day
Description: as §1, with “mice. For the treatment study with Mrgprb2/x2 ligands, C57BL/6N mice were divided into 7 groups (N=8 per group). Six groups were receiving 2.5% DSS dissolved in drinking water for 5 days (Day 0 to Day 5) and regular water till Day 12 and the control group was receiving water from Day 0 to Day 12. These 6 groups exposed to 2.5% DSS were treated with Mrgprb2/x2 ligands or saline for every alternative day till Day 12.” for “mice.”

[5] = test system: pERK 1/2 MAPK pathway and STIM1 in LAD2 mast cells; test: Western blot of LAD2 mast cells treated with Mrgprx2 ligands (pERK1/2, STIM1); assay type: cell-based; conditions: GE1111 25 μM added 30 min prior to agonists
Procedure: LAD2 cells were treated with agonists (1 μM Compound 48/80, P17, P17*A4, P17*A7 and 25 μM GE1111) for 15 min. For antagonist study, GE1111 (25 μM) were added 30 min prior to adding the agonists ([…] Compound 48/80, P17, P17*A4 and P17*A7). Cells were harvested and RIPA buffer containing cocktail mix of phosphatase and protease inhibitors was used to extract protein. Upon Bradford assay, harvested proteins were denatured with Lamelli buffer at 95° C. for 5 min. Protein samples were loaded in SDS-PAGE and transferred to nitrocellulose membrane. Membranes were blocked with 5% BSA for 1 hr and incubated at 4° C. overnight with primary antibodies (1:1000) in BSA (p44/42 MAPK (Erk1/2) (137F5) Rabbit mAb #4695, cell signalling, USA; Phospho-p44/42 MAPK (Erk1/2) (Thr202/Tyr204) (D13.14.4E) XP® Rabbit mAb #4370, Cell Signalling, USA; GAPDH (14C10) Rabbit mAb #2118, Cell signalling, USA; STIM1 Antibody #4916, Cell Signalling, USA) followed by (1:2000) HRP linked anti-rabbit secondary antibody (Anti-rabbit IgG, HRP-linked Antibody #7074) in 1 hr at room temperature. ECL was added and blots were visualized with Bio Rad CHEMIDOC™ MP imaging system.

[6] = test system: Mrgpra1 and Mrgprb2 expression in colon; test: qRT-PCR of mouse orthologs of Mrgprx2 in colon; assay type: in vivo; conditions: WT mice, 2.5% DSS-induced colitis
Procedure: To assess the gene expression profile in colon, distal colons were used to isolate total RNA using Trizol. Total RNA was precipitated for 30 min in […] with isopropanol and glycogen. The precipitated RNA was then washed with 75% ethanol and resuspended in RNase-free water for first strand cDNA synthesis following the protocol from HiScript® II Q RT SuperMix (Vazyme biotech co., ltd, China). cDNA harvested were quantified by quantitative PCR (7300 Real-Time PCR System, Applied Biosystems, Forster City, CA). The expression of genes was examined using ChamQ™ SYBR Color qPCR Master Mix as specified by the manufacturer protocol. All primer sequences are shown in Supplementary Table S1. […] method was employed for data analysis with the internal control, glyceraldehyde-3-phosphate dehydrogenase (gapdh).

[7] = target: T1, Mrgprx2 (Homo sapiens, UniProt Q96LB1); test: PRESTO-Tango GPCR β-arrestin recruitment assay in Mrgprx2-transfected HTLA cells; assay type: cell-based
T1 construct: Tango fusion cassette; expressed in transfected cells; host or cells: HTLA cells
T1 sequence (Q96LB1 1-330): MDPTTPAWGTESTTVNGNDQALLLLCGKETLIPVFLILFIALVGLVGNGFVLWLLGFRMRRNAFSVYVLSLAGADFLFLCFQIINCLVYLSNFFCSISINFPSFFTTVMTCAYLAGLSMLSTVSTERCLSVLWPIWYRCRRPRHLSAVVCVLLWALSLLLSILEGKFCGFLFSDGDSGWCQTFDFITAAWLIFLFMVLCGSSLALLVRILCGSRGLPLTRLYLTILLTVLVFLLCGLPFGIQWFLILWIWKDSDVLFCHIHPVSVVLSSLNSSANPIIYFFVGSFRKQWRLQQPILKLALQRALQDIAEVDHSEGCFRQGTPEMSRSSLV
Procedure: HTLA cells were maintained in DMEM supplemented with 10% FBS, 2 μg/mL puromycin and 100 μg/mL hygromycin B in a humidified atmosphere at 37° C. in 5% CO2. One million cells were seeded in 100 mm cell culture dish (Day 1). Cells were transfected with 4 μg Tango-MRGPRX2 construct using Lipofectamine 2000 reagent (Day 2). On day 3, cells were harvested and 20,000 cells per well were plated in 80 μL medium into poly-L-lysine coated and rinsed 96-well white cell culture plates (PerkinElmer). On day 4, GE1111 (final concentration […]) is added 1 hr prior to the agonists or antagonist in dose response manner (Compound 48/80, P17, P17*A4, P17*A7 and GE1111). On day 5, medium and drugs were removed from the wells slowly (aspiration) and […] luciferase substrate solution (500 mM DTT, 10 mM CoA, 100 mM ATP, 80 mg/mL luciferin and triton lysis buffer) were added to each well. After incubation for 10 min at room temperature, luminescence was counted in PerkinElmer Victor X4. RLU (relative luminescence units) results were exported into Excel sheets and GraphPad Prism 10 was used for analysis of data. To measure constitutive basal activity, no ligand was added on day 4.

[8] = test system: DSS-induced colitis in mice models; conditions: recent studies [41]-[44]; cited from earlier work

COC(=O)c1cc2cc(NC(N)=O)ccc2cc1-c1cc2c3c(c(O)ccc3c1)C(C)C(C=O)=C2 (stereo not shown) [GE1111]
M-CSF, BLC and G-CSF levels in blood plasma [1]: significant reduction in these cytokine levels | cytokine and chemokine levels in the blood plasma (array) [2]: significant modifications in most of the cytokine and chemokine levels | severity of DSS-induced colitis [3]: reduced the severity of DSS-induced colitis | survival of mice [4]: increased the survival rate; also recorded: mimicked the effect of the agonist on mice survival | effect on agonist-induced pERK1/2 / STIM1 pathway [5]: antagonized this pathway | expression of Mrgpra1 and Mrgprb2 in colon [6]: restored their expression to the levels of healthy mice | effect on agonist-induced β-arrestin recruitment ([7]; GE1111 (final concentration 10 PM) added 1 hr prior to the agonists): antagonized the agonist activity | GE1111 dose response on Mrgprx2 (no agonist) ([7]; Mrgprx2-transfected HTLA cells, GE1111 alone): behaved as an inverse agonist

O=c1c(O)c(-c2ccc(O)c(O)c2)oc2cc(O)cc(O)c12 [quercetin]
DSS-induced colitis symptoms [8]: ameliorate DSS-induced colitis symptoms

cortistatin 14 [CST-14, reference compound]
DSS-induced colitis symptoms [8]: ameliorate DSS-induced colitis symptoms | severity of DSS-induced colitis [3]: reduced the severity of DSS-induced colitis | survival of mice [4]: increased the survival rate

protegrin
DSS-induced colitis symptoms [8]: ameliorate DSS-induced colitis symptoms
